# Data taken from patent US20090298045A1, “Method For Selectively Expanding, Selecting And Enriching Stem/Progenitor Cell Populations” (Tel Hashomer-Medical Research, Infrastructure And Services …, priority 2004, published 2009).
# What was measured:
# Assay type in all cases: cell-based, human
# UCB-derived CD133+ cells = test: Ex vivo expansion of purified UCB-derived CD133+ cells with cytokines, CD133+ cell fraction by flow cytometry; settings: for CD133+ cell population with cytostatic agent: colchicine 2.5 ng/ml, two weeks expansion; for Fold enrichment (CD133+): with vs without colchicine 2.5 ng/ml, two weeks
# Method: Cells were obtained from human umbilical cord blood (UCB) after normal fall-term delivery. The cells were layered on a Ficoll-Hypaque gradient (1.077 g/ml Sigma), and centrifuged at 500 g for 30 minutes. The mononuclear cells in the interface layer were collected and washed three times in phosphate-buffered saline (PBS; Biological Industries) containing 0.5% Bovine serum albumin (BSA). To purify the CD133^+ cells, the mononuclear cell fraction was subjected to two cycles of immunomagnetic bead separation using a MiniMACS CD133 progenitor cell isolation kit (Miltenyi Biotec,), according to the manufacturer's recommendations.
# (§1) Purified CD133^+ cells were cultured in 24-well culture plate at densities of 2-4×10^4 cells in alpha-MEM medium (Biological Industries) supplemented with 10% fetal calf serum (Biological Industries) and the following human recombinant cytokines (Pepro Tech, Inc., Rocky Hill, N.J., USA): Trombopoietin, interleukin-6, FLT-3 ligand and Stem Cell Factor, at final concentration of 50 ng/ml each as well as interleukin-3 and IL2 at 20 ng/ml, in the absence or presence of colchicine in a concentration scale as indicated. Cells were expanded at 37° C. in a humidified atmosphere of 5% CO2 in air.
# (§2) Cultures were depopulated twice a week and a fresh medium in which growth factors and colchicine were added. At various time points, cells were counted after staining with trypan blue and harvested cells were used for enumeration of CD133^+ cells following immunophenotype analysis.
# (§3) The cells were washed with a PBS solution containing 1% BSA and stained (at 4° C. for 30 min) with fluorescein isothiocyanate (FITC)- or phycoerythrin (PE)-conjugated antibodies that are specifically described in the next sections. Cells were washed in the abovementioned buffer and analyzed by flow cytometer (Becman coulter). Cells were passed at a rate of up to 1000 cells/second, using a 488-nm argon laser beam as the light source for excitation.
# (§4) The percentage of CD133^+ cell fraction from total cells was determined by flow cytometry using. PE-anti-CD133^+ antibody (Miltenyi Biotec). Fold enrichment was calculated by dividing the CD133^+ cell percentage of culture growing with cytostatic agent by the CD133^+ cell percentage of culture growing without cytostatic agent. Since cultures were depopulated twice a week, the culture volume was calculated by multiplying the actual volume with the number of passages. Fold expansion was calculated by dividing the CD133^+ cell content of the culture by the initial number of cultured CD133^+ cells.
# [1] = test system: CD34+CD38- early stem cell sub-population of UCB derived CD133+ cells; test: Determination of CD34+CD38- early stem cell subset in cultured CD133+ cells by flow cytometry; settings: for CD34+38- cell population with cytostatic agent: colchicine 2.5 ng/ml, one week expansion; for Fold enrichment (CD34+38-): with vs without colchicine 2.5 ng/ml, one week
# Method: as §1, §3
# The percentages of early stem cell subsets were determined from the purified fresh and/or cultured CD133^+ cell fraction. Cells were dually stained with PE anti-CD34 and FITC anti-CD38 (DAKO) for determination of CD34^+ CD38^− cells by flow cytometry analyses with PE anti-CD133^+ antibody (Miltenyi Biotec).
# [2] = test system: Fresh, enriched CD133+ stem cells; test: Cell counts and fold expansion of CD133+ stem cells after ex-vivo expansion; settings: colchicine 2.5 ng/ml; for Fold expansion of CD133+ cells: 2 weeks vs T0
# Method: as §1, §2, §4
# [3] = Exp. 1, T0 0.4 × 10^3 CD133+ cells
# [4] = Exp. 2, T0 0.2 × 10^3 CD133+ cells
# [5] = Exp. 3, T0 0.4 × 10^3 CD133+ cells
compound,measurement,setting,value
COc1cc2c(c(OC)c1OC)-c1ccc(OC)c(=O)cc1[C@@H](NC(C)=O)CC2 [colchicine],optimal concentration in which the highest CD133+ cells enrichment was achieved,"UCB-derived CD133+ cells; 2 weeks expansion, three independent experiments, FIG. 3",2.5 ng/mL
same,CD133+ cell population with cytostatic agent,UCB-derived CD133+ cells; Donor # 1 (first line),4%
same,Fold enrichment (CD133+),UCB-derived CD133+ cells; Donor # 1 (first line),4
same,CD133+ cell population with cytostatic agent,UCB-derived CD133+ cells; Donor # 1,7%
same,Fold enrichment (CD133+),UCB-derived CD133+ cells; Donor # 1,7
same,CD133+ cell population with cytostatic agent,UCB-derived CD133+ cells; Donor # 3,15%
same,Fold enrichment (CD133+),UCB-derived CD133+ cells; Donor # 3,2.5
same,CD133+ cell population with cytostatic agent,UCB-derived CD133+ cells; Mean ± SD of three donors,8.7 ± 5.7%
same,Fold enrichment (CD133+),UCB-derived CD133+ cells; Mean ± SD of three donors,4.5 ± 2.3
same,enrichment of UCB-derived CD133+ cell-fraction (in words),"UCB-derived CD133+ cells; concentration scale, 2 weeks expansion, FIG. 3",dose-dependent enrichment
same,"percentage of CD34+CD38- sub-population, treated vs un-treated cultures (in words)",[1]; 1 week in culture,increase in the percentage
same,CD34+38- cell population with cytostatic agent,[1]; Donor # 3,15%
same,Fold enrichment (CD34+38-),[1]; Donor # 3,1.7
same,CD34+38- cell population with cytostatic agent,[1]; Donor # 4,5%
same,Fold enrichment (CD34+38-),[1]; Donor # 4,10
same,"CD133+ cells, T(2 weeks), with colchicine",[2]; [3],5.4 × 10^3
same,"Total cells, T(2 weeks), with colchicine",[2]; [3],135 × 10^3
same,Fold expansion of CD133+ cells,[2]; Exp. 1,(X 13.5)
same,"CD133+ cells, T(2 weeks), with colchicine",[2]; [4],4.7 × 10^3
same,"Total cells, T(2 weeks), with colchicine",[2]; [4],68 × 10^3
same,Fold expansion of CD133+ cells,[2]; Exp. 2,(X 23.5)
same,"CD133+ cells, T(2 weeks), with colchicine",[2]; [5],4.1 × 10^3
same,"Total cells, T(2 weeks), with colchicine",[2]; [5],27 × 10^3
same,Fold expansion of CD133+ cells,[2]; Exp. 3,(X 10.2)
